We go through two substances from patent US9861735B2, “Extracorporeal perfusion apparatus” (Fresenius Medical Care Deutschland GmbH, priority 2012, dated 2018).

The conditions of series [1]: offset at least in part by the necessary higher dosing; cited from earlier work.
Series [2] is described as follows: PMB clearance (dialyser, depletion agent, patient) for dosing calculation. The following applies: specified example. The source says:
The following calculation example, besides the PMB patient clearance, also takes into consideration the clearance of a dialyser (dialysis filter) arranged in the extracorporeal blood circuit and the clearance of the carrier of the depletion agent. The calculation example presupposes an existing PMB serum concentration. This is provided by administration of a bolus prior to the start of the treatment, wherein the injection solutions described under Example 4 can be used for this purpose.
For the calculation of the dosing of polymyxin B via infusion in the extracorporeal blood circuit at a lipid feed point, the PMB clearance of the patient body, of the dialyser and of the depletion agent are taken into consideration: • The PMB dialysis clearance (CDial) can be determined experimentally and is dependent on the plasma flow and also on the dialysis filter type used. In the specified example, this is 60 ml/min. • The PMB clearance of the depletion agent (Cads) is dependent on the carrier material used and also on the filtrate flow.
The PMB total clearance (Ctotal) is given by addition from the individual PMB clearance rates. The resultant decrease of PMB is illustrated in FIG. 16. […]

Series [3] has as its system LPS (L-7018 Pseud. aerug.). In words: PMB desorption over time: LPS inactivation by PMB-coated HPR10 in plasma (LAL test). It counts as biochemical, Pseudomonas aeruginosa. The conditions noted are these: PMB-coated HPR10 carrier, 1% in LPS-spiked plasma (5 ng/ml), 37° C. Here is the method:
The PMB solution (Sigma, 10 mg/ml in dist. water) is autoclaved at 121° C. for 30 min, and the carrier (HPR10) is then coated in 15 ml Greiner tubes with PMB as follows (see Table 10.2): 3 ml carrier with 7.5 ml PMB solution
The coating is carried out overnight on a roll mixer at room temperature. The coated carrier is then washed twice with 10 ml NaCl solution (sterile), and a 50% suspension is produced. A tube without adsorber was included as control.
The plasma with 5 IU heparin is spiked with 5 ng/ml LPS (L-7018 Pseud. aerug. company Sigma batch: 128K4115). In the triplicate approach, 1% PMB-coated carrier is incubated with the LPS-spiked plasma (30 μl carrier+2970 μl LPS spiked plasma) at 37° C. in an overhead shaker and samples were taken at intervals (5, 15 and 60 min) for LAL analysis.
The analysis was performed using an LAL test.

The test system of series [4] is LPS Pseudomonas aeruginosa. In words: Endotoxin batch (batch test I), LAL test, LPS from Pseudomonas aeruginosa in plasma. The class given is biochemical. The following applies: for LAL EU/ml: plasma + 0.5 ng/ml LPS, incubation 60 min, 37° C. Here is the method:
(§1) 9 blood-sampling tubes (each measuring 9 ml) spiked with 5 IU heparin are removed from a donor. The plasma is centrifuged off and the cell pellet incubated on a roll mixer. The plasma is spiked with endotoxin (LPS) and used for batch test I:
LPS: Pseudomonas aeruginosa (L-7018 company Sigma batch: 128K4115, −70° C., at 100 μl 10−3 g/ml (1 mg/ml))
(§2) The LPS is used in the batch with a final concentration 0.5 ng/ml. The tests are carried out in 3 ml pyrogen-free glass vials. In batch test I, different PMB concentrations (company. Sigma, P-1004) are added in the duplicate approach and are incubated for 60 min on an overhead shaker at 37° C. (see Table 3.5).
(§3) In batch test 1, PMB concentrations with 0 (without PMB), 10, 100, 250, 500 and 1000 ng/ml are used. Sterile PMB solutions (autoclaved pyrogen-free at 121° C., 90 min) are produced for this purpose with the following concentrations (Table 3.3):
(§4) The endotoxins are measured in the form of EU/ml with the aid of a Limulus Amebocyte Lysate test (LAL) by Charles River.

The subject of series [5] is blood cells. Put plainly: Cytokine batch (batch test II): cytokine distribution by blood cells. The conditions noted are these: LPS (E. coli)-spiked plasma, 4 hours incubation. It counts as cell-based. Here is the method: The plasma spiked with LPS and PMB is fed back following batch test 1 to the cell concentrate obtained from the blood donor in the ratio 1:1 (see Table 3.5). For the cytokine batch, the samples from batch test I were used with a PMB concentration of 0 (without PMB), 250, 500 and 1000 ng/ml. As control, a sample without LPS and with 1000 ng/ml PMB was included. Following the incubation times of 4 h and 12 h at 37° C. on a roll mixer (5 revolutions/min), samples were taken, centrifuged off and 50 μl plasma were frozen at −80° C. for the subsequent cytokine quantification.

Series [6] deals with LPS E. coli. Put plainly: Endotoxin batch (batch test I), LAL test, LPS from E. coli in plasma. The following applies: for LAL EU/ml: plasma + 0.5 ng/ml LPS, incubation 60 min, 37° C. The class given is biochemical. Here is the method:
as §1, §2, §3, §4

The conditions of series [7]: patient, specified example; cited from earlier work.
Setting [8] is: PMB concentration in the plasma 50 to 300 ng/ml (0.05 to 0.3 μg/ml).

Values joined by “and” are separate entries in the source; they are usually repeats but may differ in a detail not shown here. Identical values can stand only once.

Turning to Colistin, the “nephrotoxicity comparison (in words)” value in series [1] was “less nephrotoxic than polymyxin B”.

With polymyxin B [PMB], the “PMB clearance of the depletion agent (Cads)” value in series [2] (dependent on carrier material and filtrate flow) is 45 mL/min. Further, the “PMB dialysis clearance (CDial)” value in series [2] (dependent on plasma flow and dialysis filter type) was 60 mL/min. Moreover, the “LPS inactivation after 5 minutes compared with after 60 minutes of incubation” value in series [3] is listed as “almost the same”. The “LAL EU/ml” value was 0.178 EU/ml and 0.167 EU/ml in series [4] (PMB 10 ng/ml); 0.112 EU/ml and 0.137 EU/ml in series [4] (PMB 100 ng/ml); 0.108 EU/ml and 0.123 EU/ml in series [4] (PMB 250 ng/ml); 0.091 EU/ml and 0.081 EU/ml in series [4] (PMB 500 ng/ml); 0.062 EU/ml and 0.061 EU/ml in series [4] (PMB 1000 ng/ml); 0.77 EU/ml and 0.871 EU/ml in series [6] (PMB 10 ng/ml). For the same substance, the “LAL EU/ml” value in series [6] (PMB 100 ng/ml) is 0.379 EU/ml and 0.382 EU/ml; in series [6] (PMB 250 ng/ml) it was 0.281 EU/ml and 0.29 EU/ml; in series [6] (PMB 500 ng/ml), 0.209 EU/ml; in series [6] (PMB 1000 ng/ml) it was 0.154 EU/ml and 0.16 EU/ml. Further, the “inhibition of LPS from Pseudomonas aeruginosa” value in series [4] (setting [8]) is listed as “strong inhibition”. Besides, the “inhibition of the cytokine distribution (TNF-alpha, IL-1beta, IL-6, IL-8)” value in series [5] (very low PMB concentrations (250, 500, 1000 ng/ml)) is listed as “strong inhibition”. In addition, in series [5] (very low PMB concentrations), the “inhibition of the key mediator TNF-alpha” value is “particularly pronounced”. Further, the “inhibition of LPS from E. coli” value in series [6] (setting [8]) was “strong inhibition”. Further, in series [7], the half-life for PMB was 13.6 h.
